From paper PMC9291647, “Discovery of novel mRNA demethylase FTO inhibitors against esophageal cancer” (Journal of Enzyme Inhibition and Medicinal Chemistry, 2022)
pIC50: −log10 of the molar value.

Target: fat mass and obesity-associated protein (FTO) (Homo sapiens, UniProt Q9C0B1)
Test: FTO demethylase assay with ssRNA substrate, nucleosides detected by LC/MS
Assay type: biochemical

Chain of fat mass and obesity-associated protein (FTO) (Q9C0B1 whole entry): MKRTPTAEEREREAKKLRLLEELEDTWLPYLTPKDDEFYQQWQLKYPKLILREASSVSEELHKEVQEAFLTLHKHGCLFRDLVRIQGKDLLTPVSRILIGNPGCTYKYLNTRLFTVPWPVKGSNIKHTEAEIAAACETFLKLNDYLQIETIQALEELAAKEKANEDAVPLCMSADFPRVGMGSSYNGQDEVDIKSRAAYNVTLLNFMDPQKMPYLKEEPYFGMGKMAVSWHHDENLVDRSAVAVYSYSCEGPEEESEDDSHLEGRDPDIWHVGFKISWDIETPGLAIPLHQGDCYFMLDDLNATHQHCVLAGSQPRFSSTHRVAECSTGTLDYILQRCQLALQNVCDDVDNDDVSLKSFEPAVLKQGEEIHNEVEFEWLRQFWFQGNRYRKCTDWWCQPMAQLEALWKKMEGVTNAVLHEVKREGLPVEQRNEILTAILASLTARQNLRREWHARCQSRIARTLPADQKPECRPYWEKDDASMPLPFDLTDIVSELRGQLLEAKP

O=C(NCc1cn(Cc2nc3ccccc3[nH]2)nn1)c1c(F)c(F)c(F)c(F)c1F [C8, N-((1-((1H-benzo[d]imidazol-2-yl)methyl)-1H-1,2,3-triazol-4-yl)methyl)-2,3,4,5,6-pentafluorobenzamide] was tested, and the pIC50 was 5.06.

For COc1c(C)cnc(Cn2cc(CNC(=O)c3c(F)c(F)c(F)c(F)c3F)nn2)c1C [C6, 2,3,4,5,6-Pentafluoro-N-((1-((4-methoxy-3,5-dimethylpyridin-2-yl)methyl)-1H-1,2,3-triazol-4-yl)methyl)benzamide], the pIC50 was 6.11.
